Here are results for twelve compounds from patent publication US20250340561A1, “QUINAZOLINE COMPOUND FOR INDUCING DEGRADATION OF G12D MUTANT KRAS PROTEIN” (Astellas Pharma Inc., priority 2021, published 2025).

Molecules are shown by their SMILES. Counter-ions that a name gives are not always drawn.

What is called DC50 is the concentration at which degradation of the target reaches its halfway point. Lower therefore signals a more potent degrader.

T1 sequence (P01116 1-188 isoform P01116-2 G12D): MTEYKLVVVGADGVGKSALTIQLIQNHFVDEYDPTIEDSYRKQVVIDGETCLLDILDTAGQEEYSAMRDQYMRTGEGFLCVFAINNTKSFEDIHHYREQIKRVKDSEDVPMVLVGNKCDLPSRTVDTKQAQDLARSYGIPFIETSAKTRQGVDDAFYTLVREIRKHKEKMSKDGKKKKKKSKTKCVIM

This experiment has as its target T1, KRAS G12D (Homo sapiens, UniProt P01116, G12D).
T1 construct: host or cells: AsPC-1 human pancreatic cancer cells
The experiment is described as follows: Test Example 1-1: KRAS degradation action in AsPC-1, sandwich ELISA. The class given is cell-based. To be noted: AsPC-1 cells, 24 hours treatment, corrected with β-actin, 0% = 10 μM Example No. 7. As for the experimental part: Test Example 1-1: Evaluation of KRAS Degradation Action on Human G12D Mutant KRAS-Positive Pancreatic Cancer Line AsPC-1
The KRAS degradation action of test compounds was evaluated by measuring the expression levels of KRAS G12D by a sandwich ELISA method.
AsPC-1 cells (ATCC, CRL-1682) were seeded at 90 μL per well on a 96-well plate (from IWAKI) to give 1.8×10^4 cells per well. As for the cell culture conditions, RPMI 1640 medium (from Merck) containing 10% fetal bovine serum (from Cytiva) was used in the presence of 5% CO2 at 37° C.
The next day, the test compounds (10 points having final concentrations in the range of 10 μM to 0.3 nM) were diluted 100-fold with a fresh medium and were added at 10 μL per well. The same treatments were each applied to 4 wells. In addition, in production of the sandwich ELISA plate, a capture antibody (anti-KRAS antibody, from LS Bio) mixed in Phosphate Buffered Saline [PBS; from FUJIFILM Wako Pure Chemical Corporation] in 1,000-fold dilution was added at 20 μL per well to a Maxisorp 384-well plate (from Thermo Scientific), and after attaching a seal, the plate was allowed to stand at 4° C. overnight.
After 24 hours of the test compound treatment, the culture supernatant was discarded. Immediately, a cytolytic solution (produced by adding, to a RIPA buffer [from Thermo Scientific], a Halt Protease Phosphatese Inhibitor Cocktail [from Thermo Scientific] and Benzonase Nuclease [from Merck] in amounts of 1/100 and 1/500, respectively) was added at 50 μL per well, and the cells were lysed. Then, equally treated 4 wells were combined to prepare a cell lysate sample of 200 μL in total. For KRAS detection, the Maxisorp 384-well plate which had been treated with the capture antibody since the previous day was washed (twice with 25 μL each) with 0.05% Tween-20-containing PBS (from Thermo Scientific; 20×PBS Tween-20 was diluted 20-fold with ion exchange water and used) and was treated with a blocking solution (Intercept Blocking Buffer; from LI-COR Biosciences) for 60 minutes, and then, the cell lysate samples were added at 20 μL per well. For 3-actin detection, the cell lysate samples were added as they were at 20 μL per well to the Maxisorp 384-well plate, and after attaching a seal, the plate was allowed to stand at 4° C. overnight.
The next day, after washing the KRAS detection plate with 0.05% Tween-20-containing PBS, an anti-Ras (G12D mutant specific) antibody (from Cell Signaling Technology) diluted 1,000-fold with a blocking solution was added at 20 μL per well as a detection antibody, and the plate was allowed to stand for 5 hours at room temperature. Then, the plate was centrifuged to remove the supernatant (using a centrifugal dehydrator machine, the supernatant was removed by the same method hereinafter) and was washed with 0.05% Tween-20-containing PBS. Then, an anti-Rabbit IgG […] antibody (from Cell Signaling Technology) diluted 1,000-fold with a blocking solution was added at 20 μL per well as a secondary antibody, and the plate was allowed to stand for 1 hour at room temperature. The plate was centrifuged to remove the supernatant and was washed with 0.05% Tween-20-containing PBS. Then, a BM chemiluminescent ELISA substrate (from Merck) was added at 20 μL per well, and the amounts of luminescence were measured with 2103 EnVision (from PerkinElmer). In addition, the 3-actin detection plate was washed with 0.05% Tween-20-containing PBS and was treated with a blocking solution for 60 minutes, and then, an anti-β-actin antibody (from Abcam) diluted 1,000-fold with a blocking solution was added at 20 μL per well as a detection antibody. The plate was allowed to stand for 5 hours at room temperature. Then, the plate was centrifuged to remove the supernatant and washed with 0.05% Tween-20-containing PBS, and then, an anti-Mouse IgG RP-linked antibody (from Cell Signaling Technology) diluted 1,000-fold with a blocking solution was added at 20 μL per well as a secondary antibody. […]
For orientation: ELISA stands for enzyme-linked immunosorbent assay.
Turning to `Cc1c(F)cc2[nH]ncc2c1-c1c(C2CC2)cc2c(N3C[C@@H]4C[C@H]3CN4)nc(OC3CCOCC3)nc2c1OCc1ccc(-c2cn([C@H](C(=O)N3C[C@H](O)C[C@H]3C(=O)N[C@@H](CO)c3ccc(-c4scnc4CO)cc3)C(C)C)nn2)cc1` [Example 18, (4R)-1-[(2S)-2-(4-{4-[({6-cyclopropyl-4-[(1S,4S)-2,5-diazabicyclo[2.2.1]heptan-2-yl]-7-(6-fluoro-5-methyl-1H-indazol-4-yl)-2-[(oxan-4-yl)oxy]quinazolin-8-yl}oxy)methyl]phenyl}-1H-1,2,3-triazol-1-yl)-3-methylbutanoyl]-4-hydroxy-N-[(1R)-2-hydroxy-1-{4-[4-(hydroxymethyl)-1,3-thiazol-5-yl]phenyl}ethyl]-L-prolinamide n hydrochloride], half-maximal degradation (DC50) was put at 74 nM.

The compound `Cc1ncsc1-c1ccc([C@H](CO)NC(=O)[C@@H]2C[C@@H](O)CN2C(=O)[C@H](C(C)C)n2cc(-c3ccc(COc4c(-c5cc(O)cc(F)c5C)c(C5CC5)cc5c(N6C[C@@H]7C[C@H]6CN7)nc(OC6CCOCC6)nc45)cc3)nn2)cc1` [Example 15] yielded a DC50 of 95 nM.

Consider `Cc1ncsc1-c1ccc([C@H](CO)NC(=O)[C@@H]2C[C@@H](O)CN2C(=O)[C@H](C(C)C)n2cc(-c3ccc(COc4c(-c5c(C)c(F)cc6[nH]ncc56)c(C5CC5)cc5c(N6C[C@@H]7C[C@H]6CN7)nc(OC6CCN(CC(F)F)CC6)nc45)cc3)nn2)cc1` [Example 21], for which the DC50 stood at 72 nM.

In turn, `Cc1ncsc1-c1ccc([C@H](CO)NC(=O)[C@@H]2C[C@@H](O)CN2C(=O)C(C(C)C)n2cc(-c3ccc(COc4c(-c5c(C)c(F)cc6[nH]ncc56)c(C5CC5)cc5c(N6C[C@@H]7C[C@H]6CN7)nc(OC6CCOCC6)nc45)cc3)cn2)cc1` (single isomer, unassigned) [Example 11] had a half-maximal degradation concentration (DC50) of 178 nM.

With `Cc1ncsc1-c1ccc(C2(NC(=O)[C@@H]3C[C@@H](O)CN3C(=O)[C@@H](NC(=O)c3ccc(COc4c(-c5c(C)c(F)cc6[nH]ncc56)c(C5CC5)cc5c(N6C[C@@H]7C[C@H]6CN7)nc(OC6CCOCC6)nc45)cn3)C(C)C)CC2)cc1` [Example 2], the DC50 came to 598 nM.

The compound `CCn1nccc1-c1ccc([C@H](CO)NC(=O)[C@@H]2C[C@@H](O)CN2C(=O)[C@H](C(C)C)n2cc(-c3ccc(COc4c(-c5c(C)c(F)cc6[nH]ncc56)c(C5CC5)cc5c(N6C[C@@H]7C[C@H]6CN7)nc(OC6CCOCC6)nc45)cc3)nn2)cc1` [Example 26] came in with a DC50 of 24 nM.

In turn, `Cc1ncsc1-c1ccc([C@H](CF)NC(=O)[C@@H]2C[C@@H](O)CN2C(=O)[C@H](C(C)C)n2cc(-c3ccc(COc4c(-c5c(C)c(F)cc6[nH]ncc56)c(C5CC5)cc5c(N6C[C@@H]7C[C@H]6CN7)nc(OC6CCOCC6)nc45)cc3)nn2)cc1` [Example 17] registered a 50% degradation concentration (DC50) of 92 nM.

Compound `Cc1c(F)cc2[nH]ncc2c1-c1c(C2CC2)cc2c(N3C[C@@H]4C[C@H]3CN4)nc(OC3CCOCC3)nc2c1OCc1ccc(-c2cn([C@H](C(=O)N3C[C@H](O)C[C@H]3C(=O)N[C@@H](CO)c3ccc(Br)cc3)C(C)C)nn2)cc1` [Example 12] had a DC50 of 136 nM.

Compound `Cc1ncsc1-c1ccc([C@H](C)NC(=O)[C@@H]2C[C@@H](O)CN2C(=O)[C@H](C(C)C)n2cc(-c3ccc(COc4c(-c5c(C)c(F)cc6[nH]ncc56)c(C5CC5)cc5c(N6C[C@@H]7C[C@H]6CN7)nc(OC6CCOCC6)nc45)cc3)nn2)cc1` [Example 9] came in with a 50% degradation concentration (DC50) of 77 nM.

Regarding `Cc1c(F)cc2[nH]ncc2c1-c1c(C2CC2)cc2c(N3C[C@@H]4C[C@H]3CN4)nc(OC3CCOCC3)nc2c1OCc1ccc(-c2cn([C@H](C(=O)N3C[C@H](O)C[C@H]3C(=O)N[C@@H](CO)c3ccccc3)C(C)C)nn2)cc1` (atropisomer, axis not shown) [Example 14], the DC50 was determined as 221 nM.

`Cc1ncsc1-c1ccc([C@@H](NC(=O)[C@@H]2C[C@@H](O)CN2C(=O)[C@H](C(C)C)n2cc(-c3ccc(COc4c(-c5c(C)c(F)cc6[nH]ncc56)c(C5CC5)cc5c(N6C[C@@H]7C[C@H]6CN7)nc(OC6CCOCC6)nc45)cc3)nn2)C(F)F)cc1` [Example 16]: it took 188 nM to reach half-maximal degradation (DC50).

Compound `Cc1ncsc1-c1ccc([C@H](CO)NC(=O)[C@@H]2C[C@@H](O)CN2C(=O)[C@H](C(C)C)n2cc(-c3ccc(COc4c(-c5c(C)c(F)cc6[nH]ncc56)c(C5CC5)cc5c(N6C[C@@H]7C[C@H]6CN7)nc(OC6CCN(C7COC7)CC6)nc45)cc3)nn2)cc1` [Example 24] showed a DC50 of 103 nM.
